Assays:
[1] = Evaluation of moisture retaining ability in dry conditions (weight change, 18° C., RH 20%); type: physicochemical; settings: initial moisture content 60%, constant temperature and humidity chamber 18° C.
Protocol: Moisture retaining ability was evaluated and compared for the compounds obtained in the Examples.
Specifically, samples were prepared such that the moisture content of the compounds obtained in the Examples was 60%, and while the samples were kept in a constant temperature and humidity chamber (18° C., RH 20%), the weight change of the samples was observed over time, thereby enabling evaluation of the changes in moisture content.

hairless Guinea pigs = test: Evaluation of the increase of moisture content in the skin (Corneometer, acetone-damaged skin barrier); type: in vivo; settings: flank, 200 μl applied after 30 min acetone patch; for moisture content of the stratum corneum, 6 h after sample application: relative to content directly after acetone treatment = 100, 6 h; for moisture content of the stratum corneum, 12 h after sample application: relative to content directly after acetone treatment = 100, 12 h; for moisture content of the stratum corneum, 24 h after sample application: relative to content directly after acetone treatment = 100, 24 h; for moisture content of the stratum corneum, 48 h after sample application: relative to content directly after acetone treatment = 100, 48 h
Protocol: The degree of the increase of moisture content in the skin was measured for the compounds obtained in the Examples. The increase of moisture content in the skin was measured by dividing 50 hairless Guinea pigs into 10 groups, and applying the compounds obtained in the Examples to each group.
Specifically, after the skin barrier was damaged by patching acetone using Finn chamber for 30 minutes to the flank site of the experiment animals, 200 μl of each experimental substance was applied to the patched site, then the moisture content of the stratum corneum of the site was measured using Corneometer and then evaluated. Apparatus measurements were carried out directly after and 6 hours, 12 hours, 24 hours and 48 hours after removing the acetone patch. Changes of moisture content in the skin were evaluated relative to the content measured directly after the acetone treatment, which was set to be 100.

Compound | moisture content of sample, 1 h [1] [%] | moisture content of sample, 2 h [1] [%] | moisture content of sample, 4 h [1] [%] | moisture content of sample, 6 h [1] [%] | moisture content of the stratum corneum, 6 h after sample application (hairless Guinea pigs) | moisture content of the stratum corneum, 12 h after sample application (hairless Guinea pigs) | moisture content of the stratum corneum, 24 h after sample application (hairless Guinea pigs) | moisture content of the stratum corneum, 48 h after sample application (hairless Guinea pigs)
pentaerythritol ethoxylate (3/4 EO/OH) glycolic ester ethoxylate cetyl ether (pentaerythritol ethoxylate (3/4 EO/OH) ceteth-4 carboxylate) [Example 22] | 56 | 52 | 48 | 43 | 100 | 105 | 109 | 115
pentaerythritol ethoxylate (3/4 EO/OH) glycolic ester ethoxylate octyl ether(pentaerythritol ethoxylate (3/4 EO/OH) capreth-4 carboxylate) [Example 17] | 57 | 53 | 47 | 38 | 103 | 106 | 108 | 104
pentaerythritol ethoxylate (15/4 EO/OH) glycolic ester ethoxylate hexyl ether (pentaerythritol ethoxylate (15/4 EO/OH) hexeth-4 carboxylate) [Example 29] | 57 | 55 | 50 | 43 | 106 | 109 | 111 | 109
pentaerythritol ethoxylate (15/4 EO/OH) glycolic ester ethoxylate stearyl ether (pentaerythritol ethoxylate (15/4 EO/OH) steareth-10 carboxylate) [Example 42] |  |  |  |  | 106 | 110 | 109 | 111
pentaerythritol glycolic ester ethoxylate cetyl ether (pentaerythritol ceteth-10 carboxylate) [Example 10] | 58 | 57 | 50 | 44 | 101 | 105 | 109 | 113
pentaerythritol glycolic ester ethoxylate lauryl ether (pentaerythritol laureth-4 carboxylate) [Example 5] | 58 | 55 | 49 | 41 | 98 | 99 | 103 | 105

Further lines, with some results ahead:

moisture content of sample, 1 h [1] [%] | moisture content of sample, 2 h [1] [%] | moisture content of sample, 4 h [1] [%] | moisture content of sample, 6 h [1] [%] | Compound | moisture content of the stratum corneum, 6 h after sample application (hairless Guinea pigs) | moisture content of the stratum corneum, 12 h after sample application (hairless Guinea pigs) | moisture content of the stratum corneum, 24 h after sample application (hairless Guinea pigs) | moisture content of the stratum corneum, 48 h after sample application (hairless Guinea pigs)
57 | 50 | 41 | 25 | OCC(O)CO [Glycerol, reference compound] | 109 | 113 | 115 | 117
58 | 52 | 44 | 29 | pentaerythritol ethoxylate (15/4 EO/OH) glycolic ester ethoxylate cetyl ether (pentaerythritol ethoxylate (15/4 EO/OH) ceteth-10 carboxylate) [Example 38] | 108 | 111 | 112 | 114
58 | 56 | 49 | 45 | pentaerythritol ethoxylate (15/4 EO/OH) glycolic ester ethoxylate lauryl ether (pentaerythritol ethoxylate (15/4 EO/OH) laureth-6 carboxylate) [Example 34] | 105 | 110 | 116 | 114

— US8501807B2, “Pentaerythritol derivatives” (priority 2004, dated 2013)
